From ChEMBL document CHEMBL3507680, “University of Dundee, Gates Library screen for HepG2 cell viability” come the findings set out here.

A short description of the series: Human HepG2 cell viability assay in 384 well format. The format is toxicity, cell-based. More on the design: dose 125 nL, time 70.5 hour; cytotoxicity at 70.5 h: concentration not given beside the values. Conditions: HepG2 cells, read-out: Inhibition.
As for `COc1ccc(CN(Cc2c[nH]cn2)CC2CCCO2)c(OC)c1` (stereo not given), the cytotoxicity at 70.5 h was -3.26%.
For `NC(=O)CCN(CC(=O)NCc1cccs1)c1ccc(F)cc1`, the cytotoxicity at 70.5 h was -6.81%.
The same measure for `COc1ncnc(N(C)C)c1NC(=O)Cc1cc(F)ccc1F`: -5.92%; for `Cc1cc(-c2cnc(N3CCNC(=O)C3)nc2-c2ccoc2C)on1`: -6.66%.
With `O=C(Nc1cc(C(F)(F)F)c[nH]c1=O)N1CCCSCC1` the figure was -8.3%; with `CN1CCC(c2cccc(CCC(=O)NCC(N)=O)n2)CC1`, -5.22%; with `CSc1nccc(N2CCC(=O)N(CC3CC3)C(C(C)C)C2)n1` (stereo not given), 54.1%.
As for `CS(=O)(=O)c1snnc1C1CCN(Cc2cccc(O)c2)CC1`, the cytotoxicity at 70.5 h was -7.7%.
For `Cc1nc(CN2CC3(CCN(c4ncccn4)C3)CC2=O)cs1` (stereo not given), the cytotoxicity at 70.5 h is -23.8%.
As to `COCc1ncn(Cc2nc(-c3ccc(OC)cc3F)oc2C)n1`, the cytotoxicity at 70.5 h is 51.2%.
Take `COCc1noc(-c2ccc(N3CCCC3c3ccc(F)cc3)nc2)n1` (stereo not given): the cytotoxicity at 70.5 h was -3.49%.
The same measure for `CC(=O)N1CCN(C(=O)c2ccc(-c3cccc(C)c3)[nH]c2=O)CC1`: -2.2%.
With `COCc1nnc(NC(=O)c2cn(C(C)C)c3ccc(OC)cc23)s1`, the cytotoxicity at 70.5 h was -10.1%.
For `Cc1cn2cc(C(=O)NC3CCCN(c4ncccn4)C3)ccc2n1` (stereo not given), the cytotoxicity at 70.5 h came to 1.08%.
`NC(=O)C1CCN(C(=O)c2ccc(Sc3ccccn3)cc2)CC1`: the cytotoxicity at 70.5 h was -2.31%.
As to `O=S(=O)(c1cccs1)N1CCCn2cnc(CN3CCCC3)c2C1`, the cytotoxicity at 70.5 h came out at 23.3%.
With `CNC(=O)N1C[C@H]2C[C@H](C(=O)Nc3ccccc3)[C@@H](C1)O2` the figure was -7.41%; with `CNc1cc(-c2cccc(CN)c2)c2cc[nH]c2n1`, -13.9%.
`CCCS(=O)(=O)Nc1ccc2c(c1)OCC(C)(C)C(=O)N2C`: the cytotoxicity at 70.5 h was found to be 7.24%.
The same measure for `O=C(Cn1ccnc1)N1CCC(n2cc(-c3cccc(Cl)c3)nn2)CC1`: 22.5%; for `Cc1ccc2c(c1)CN(C(=O)c1cccs1)C(CN(C)C)CO2` (stereo not given): -2.45%; for `CCN(C(=O)CN1CCCC1c1ccc(OC)cc1)c1ccccc1` (stereo not given): 2.59%.
With `O=C(NCc1cccc(N2CC=CC2)c1)NC1CC1` the figure was -2.22%.
In the case of `O=C(O)c1ncccc1OCC(F)(F)F`, the cytotoxicity at 70.5 h is -0.00705%.
Take `CN(C)C(=O)CN1CCc2ncnc(NC3CCC3)c2CC1`: the cytotoxicity at 70.5 h came to 0.00388%.
The same measure for `CC(c1cccnc1)N(C)C(=O)NCCOc1ccc(C#N)cc1` (stereo not given): -11.1%; for `CN(C)S(=O)(=O)N1CCN(C(=O)OC(C)(C)C)CC12CCCCC2`: -6.87%.
For the molecule `OCCNc1nc(NCCc2ccccc2)nc2nccnc12`, the cytotoxicity at 70.5 h is -1.57%.
Consider `Cn1ncc2c(N3CC[C@H](O)C3)nc(-c3ccncc3)nc21`, for which the cytotoxicity at 70.5 h was -15.7%.
Consider `COCC(=O)N1CCC2(CCC(C(=O)N3CCCC3)O2)CC1` (stereo not given), for which the cytotoxicity at 70.5 h was found to be 10.4%.
Consider `Cc1nc(NCC2CC2)nc2c1COCC21CCN(C(=O)C(C)(C)C)C1` (stereo not given), for which the cytotoxicity at 70.5 h was -18.4%.
With `CC(C)N(C)C(=O)C1=NOC2(CCN(C(=O)c3ccccn3)C2)C1` (stereo not given), the cytotoxicity at 70.5 h is -9.35%.
`CS(=O)(=O)c1cccc2c1CCCN2C(=O)Cc1cccc(F)c1`: the cytotoxicity at 70.5 h was -2.8%.
The same measure for `O=C(CCc1ccsc1)N(Cc1ccccn1)C1CC1`: -2.46%; for `CCSc1cncc(NCc2ccc(N3CCNC(=O)C3)cc2)n1`: 3.68%; for `Cc1nc(CN2Cc3nccn3CC(CN3CCCC3)C2)cs1` (stereo not given): -3.82%.
`CC(C(=O)NCc1ccco1)N1CCN(Cc2nccn2C)CC1` (stereo not given): the cytotoxicity at 70.5 h is -5.54%.
With `Cc1cc(C[C@@H]2COC[C@@H]2NC(=O)CN2CCCC2)on1` the figure was -0.566%.
Take `CS(=O)(=O)N1CCN2C(=O)N(C3CCOCC3)C[C@H]2C1`: the cytotoxicity at 70.5 h came out at 12.9%.
With `Cc1n[nH]c(-c2ccc(NC(=O)C(C)N3CCN(C)CC3)cc2)n1` (stereo not given) the figure was 2.06%; with `CNC(=O)COC1COC2(CCN(c3ccc(C)nn3)CC2)C1` (stereo not given), 0.115%; with `CC1=Nc2c(c(O)nn2C(C)C)C(c2cccnc2)S1` (stereo not given), 26.1%.
With `CC(C)C[C@H](N)COc1cccc(F)c1Oc1cccc(Cl)c1` the figure was 26.3%.
`Cc1cccc(CN2C[C@@H](NC(=O)C3CC3)[C@H]3OCCC[C@H]32)n1`: the cytotoxicity at 70.5 h is 4.63%.
Regarding `Cn1ccc(-c2cc(C(=O)N3CCC(O)CC3)c3ccccn23)n1`, the cytotoxicity at 70.5 h was determined as 29.8%.
With `Cn1c(=O)c2cc(C(=O)NCCOCC(F)(F)F)ccc2n(C)c1=O`, the cytotoxicity at 70.5 h worked out at 25.9%.
Take `Cc1ccc(CN(CCN(C)C)C(=O)Nc2cc(C(N)=O)ccc2C)s1`: the cytotoxicity at 70.5 h was determined as 21.3%.
With `Cc1cnc(CC2COCCN(C(=O)c3cncs3)C2)cn1` (stereo not given) the figure was -1.74%; with `CC(C)c1nnc2n1CCN(CCS(=O)(=O)c1ccccc1)C2`, -2.01%; with `COCCC(=O)N1CC[C@@H](N2CCN(C)CC2)[C@@H]1Cc1ccccc1`, -1.48%.
Turning to `COc1ccc(CN2CCC3(CC(C(=O)NCC(C)C)=NO3)C2)cc1` (stereo not given), the cytotoxicity at 70.5 h was -6.44%.
As to `Cc1nc(C2CCCN2CC(=O)NCCOc2ccccc2)no1` (stereo not given), the cytotoxicity at 70.5 h was determined as 0.566%.
With `CC(=O)Nc1cccc2c1ccn2CC(=O)Nc1ncc[nH]1` the figure was -5.41%; with `COc1ccc2nc(C3CC3)cc(C(=O)NCC(=O)N(C)C)c2c1`, -2.45%.
`CCN1Cc2ccccc2CC2(CCN(CC(=O)O)CC2)C1=O`: the cytotoxicity at 70.5 h came out at 15.3%.
Regarding `Cc1ccsc1-c1nccn1CCS(C)(=O)=O`, the cytotoxicity at 70.5 h was 16.2%.
Turning to `CN(C)C(=O)C1(C)CN(Cc2cn(C)c3ccccc23)CCO1` (stereo not given), the cytotoxicity at 70.5 h is -4.04%.
`Cc1oc(-c2ccsc2)nc1CNC(C)Cn1cccn1` (stereo not given): the cytotoxicity at 70.5 h came out at 11.6%.
As to `Cc1ccc2nc(C)c(C)c(C(=O)NCCCn3ccnn3)c2c1`, the cytotoxicity at 70.5 h amounted to 3.79%.
On to `Cn1ccc2c(ccn2CC(=O)Nc2ccc(Br)cc2)c1=O`, for which the cytotoxicity at 70.5 h is 30.5%.
Consider `CCN1CCC2(CC1)CC(Nc1ncccn1)CO2` (stereo not given), for which the cytotoxicity at 70.5 h is -1.36%.
For the molecule `COc1ccc(CCN2CCC(N3CCN(C)C3=O)CC2)cc1`, the cytotoxicity at 70.5 h is -8.36%.
The same measure for `O=C(NCCNc1ncccn1)N1CC=C(c2ccccc2)CC1`: -4.56%; for `O=C(NCc1nnc2n1CCC2)N(Cc1ccco1)C1CC1`: -10.5%.
As for `COc1cccc(Cn2ncnc2COC(C)C)c1`, the cytotoxicity at 70.5 h was -15.5%.
Turning to `Cc1cnccc1-n1nc(C(C)C)nc1CCc1cnccn1`, the cytotoxicity at 70.5 h is -19.8%.
Turning to `COc1ccccc1OC(C)CNC(=O)c1cnc[nH]1` (stereo not given), the cytotoxicity at 70.5 h was -21.2%.
With `CC(C(=O)Nc1ccccc1Sc1ccccc1)S(C)(=O)=O` (stereo not given) the figure was -3.46%; with `Cc1nnc([C@H]2CC[C@@H]3[C@@H](CCN3CC3CCOCC3)O2)o1`, -2.48%.
`Cc1cc(C)n(CC2CN(c3cnc4ccccc4n3)CCO2)n1` (stereo not given): the cytotoxicity at 70.5 h is -8.47%.
With `CCn1c(CN2CCOC(Cn3cncn3)C2)nc2c(F)cccc21` (stereo not given), the cytotoxicity at 70.5 h was found to be 15.4%.
For `Cc1cc(N2CCc3c(nc(C(C)C)n3C)C2)nc(N)n1`, the cytotoxicity at 70.5 h is -10.6%.
As for `CN(C)c1cccc(C(=O)NCC(O)c2cccs2)c1` (stereo not given), the cytotoxicity at 70.5 h worked out at 20.3%.
With `CCOc1cccc2c1OCC(C(=O)NS(=O)(=O)c1ccc(C)s1)=C2`, the cytotoxicity at 70.5 h is -4.35%.
Regarding `Fc1ccccc1-c1cc(N2[C@@H]3CC[C@H]2CNC3)n2nccc2n1`, the cytotoxicity at 70.5 h is -3.67%.
With `COCCN1CCCc2sc(C(=O)N3CCCN(C)CC3)nc21`, the cytotoxicity at 70.5 h amounted to 11.7%.
Turning to `COc1cc(NCc2c(C)noc2C)c(C(=O)N(C)C)cc1OC`, the cytotoxicity at 70.5 h was -8.14%.
On to `COc1ccc(-c2cc(C3CCCNC3)ccn2)cc1` (stereo not given), for which the cytotoxicity at 70.5 h was -12.4%.
The same measure for `Cc1ccc(C)c(C(=O)NCC(c2cccn2C)N2CCCCCC2)c1` (stereo not given): -1.53%.
For the molecule `Cc1nc(-c2cc(C(=O)O)co2)cs1`, the cytotoxicity at 70.5 h is -9.39%.
As for `Cc1nnc([C@@H]2C[C@H]3CN(C(=O)C4CC4)C[C@H]3O2)[nH]1`, the cytotoxicity at 70.5 h was -5.22%.
Take `Cc1cnn(CC2CCCN2C(=O)c2csc(C(C)C)n2)c1` (stereo not given): the cytotoxicity at 70.5 h amounted to 17.5%.
As for `Cc1cc(C(=O)NCc2ccnc(OCC(F)(F)F)c2)on1`, the cytotoxicity at 70.5 h came out at 16.2%.
Consider `COc1ccccc1OCC(=O)NS(=O)(=O)c1ccc(F)cc1F`, for which the cytotoxicity at 70.5 h was -8.29%.
In the case of `CC(C)Oc1ncnc2c1CCN(Cc1ccco1)CC2`, the cytotoxicity at 70.5 h was -2.84%.
On to `COC(=O)c1cccc(CN(C)C(C)c2ccccn2)c1` (stereo not given), for which the cytotoxicity at 70.5 h was -24.9%.
On to `CN1CCN(C2CCN(Cc3ccc(Cl)s3)CC2)C1=O`, for which the cytotoxicity at 70.5 h is -0.237%.
As to `Cc1nc(N2CCOCC2)nc2c1CN(CC(=O)N(C)C)CC2`, the cytotoxicity at 70.5 h was -13.5%.
With `O=S(=O)(c1ccccc1)N1CCCC1c1cc[nH]n1` (stereo not given) the figure was -8.7%; with `O=C(COC1CCOC1)N(CC(F)F)c1cccc(Cl)c1` (stereo not given), -3.13%; with `Cc1cc2c(cc1C)OC(C(=O)NCCNC(=O)C1CCCC1)C2` (stereo not given), -6.43%.
As for `COc1cc(N2CC[C@@H](O)[C@@H]2Cc2cccnc2)ncn1`, the cytotoxicity at 70.5 h was -8.63%.
Regarding `COCC(=O)N1CCC(c2noc3nc(C)cc(C(F)(F)F)c23)CC1`, the cytotoxicity at 70.5 h stood at 24.6%.
`O=C1NCCCCC1NCc1csc(-c2ccccn2)n1` (stereo not given): the cytotoxicity at 70.5 h is -12.2%.
Turning to `Cc1cnn(CCC(=O)N2CCCC(c3noc(C)n3)C2)c1` (stereo not given), the cytotoxicity at 70.5 h was 1.71%.
Consider `c1ccc(OC2CCCC2)c(CNC2CCc3ncnn3C2)c1` (stereo not given), for which the cytotoxicity at 70.5 h was 1.21%.
The same measure for `COc1cccc(C(CO)NC(=O)NC(C)C)c1` (stereo not given): 11.8%.
For `CCCn1cc(-c2cc(C(=O)N(C)C)c3ccc(C)cc3n2)cn1`, the cytotoxicity at 70.5 h is -9.76%.
Take `Cc1nc(C)n(CC(=O)N2CCCC(c3cc4ccccc4cn3)C2)n1` (stereo not given): the cytotoxicity at 70.5 h is -5.39%.
As to `CSCC(CCO)NC(=O)Nc1ccc(Br)cc1` (stereo not given), the cytotoxicity at 70.5 h is -11.8%.
